Results: patent US9617271B2, “Triazolo compounds” (Hoffmann-La Roche Inc., priority 2012, dated 2017)

What follows are molecules tested against human PDE10A (Homo sapiens (Human), UniProt Q9Y233) (assay: human PDE10A full length assay ([3H]-cGMP SPA)). Settings: human PDE10A full length enzyme, 50 nM cGMP + 50 nM [3H]-cGMP, 20 minutes at room temperature; read-out: PDE10A inhibition IC50.
Format: biochemical
Experimental: The human PDE10A full length assay was performed in 96-well micro titer plates. The reaction mixture of 50 μl contained 20 mM HEPES pH=7.5/10 mM MgCl2/0.05 mg/ml BSA (Sigma cat. #A-7906), 50 nM cGMP (Sigma, cat. #G6129) and 50 nM [3H]-cGMP (GE Healthcare, cat. #TRK392 S.A. 13.2 Ci/mmol), 3.75 ng/well PDE10A enzyme (Enzo Life Science, Lausen, Switzerland cat #SE-534) with or without a specific test compound. A range of concentrations of the potential inhibitor was used to generate data for calculating the concentration of inhibitor resulting in 50% of the effect (e.g. IC50, the concentration of the competitor inhibiting PDE10A activity by 50%). Non-specific activity was tested without the enzyme. The reaction was initiated by the addition of the substrate solution (cGMP and [3H]-cGMP) and allowed to progress for 20 minutes at room temperature. The reaction was terminated by adding 25 μl of YSi-SPA scintillation beads (GE Healthcare, cat. #RPNQ0150) in 18 mM zinc sulphate solution (stop reagent). After 1 h under shaking, the plate was centrifuged one minute at 170 g to allow beads to settle. Afterwards, radioactive counts were measured on a Perkin Elmer TopCount Scintillation plate reader.

human PDE10A, sequence (Q9Y233 other isoform, or with tags, fused parts or gaps): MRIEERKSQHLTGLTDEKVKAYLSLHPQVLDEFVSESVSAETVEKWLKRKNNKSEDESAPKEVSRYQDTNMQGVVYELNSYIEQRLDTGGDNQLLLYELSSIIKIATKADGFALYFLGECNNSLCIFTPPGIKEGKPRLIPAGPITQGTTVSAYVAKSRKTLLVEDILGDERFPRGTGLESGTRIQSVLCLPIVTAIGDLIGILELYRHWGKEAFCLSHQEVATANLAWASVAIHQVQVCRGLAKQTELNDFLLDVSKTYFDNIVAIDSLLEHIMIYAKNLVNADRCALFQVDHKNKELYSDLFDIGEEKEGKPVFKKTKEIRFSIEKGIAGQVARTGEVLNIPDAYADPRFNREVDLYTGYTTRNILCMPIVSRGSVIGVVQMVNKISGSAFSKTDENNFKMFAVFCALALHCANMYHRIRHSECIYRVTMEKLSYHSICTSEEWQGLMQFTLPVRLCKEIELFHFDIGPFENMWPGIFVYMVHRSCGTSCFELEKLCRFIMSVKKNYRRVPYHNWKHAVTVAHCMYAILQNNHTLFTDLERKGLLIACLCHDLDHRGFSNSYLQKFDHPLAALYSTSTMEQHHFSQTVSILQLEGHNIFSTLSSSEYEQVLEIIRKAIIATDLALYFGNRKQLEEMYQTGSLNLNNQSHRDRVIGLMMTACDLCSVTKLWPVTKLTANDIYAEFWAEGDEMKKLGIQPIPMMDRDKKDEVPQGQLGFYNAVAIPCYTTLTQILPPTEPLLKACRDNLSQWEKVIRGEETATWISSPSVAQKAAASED

First: CCN(CC)c1nc(CCc2nc(N3CCCC3)nn2C)nn2c(C)c(C)nc12 [Example 35, N,N-Diethyl-6,7-dimethyl-2-(2-(1-methyl-3-(pyrrolidin-1-yl)-1H-1,2,4-triazol-5-yl)ethyl)imidazo[1,2-f][1,2,4]triazin-4-amine]
Second: Cc1nc2c(C(C)C)cc(CCc3nc(N4CCCC4)nn3C)nn2c1C [Example 45, 8-Isopropyl-2,3-dimethyl-6-(2-(1-methyl-3-(pyrrolidin-1-yl)-1H-1,2,4-triazol-5-yl)ethyl)-imidazo[1,2-b]pyridazine]
The IC50 of the first is 6.4-fold lower: 1.41 nM for the first, 9 nM for the second.

First: Cn1nc(N2CCCC2)nc1C#Cc1ccc2nc(Cl)cn2n1 [Example 36, 2-Chloro-6-((1-methyl-3-(pyrrolidin-1-yl)-1H-1,2,4-triazol-5-yl)ethynyl)imidazo[1,2-b]pyridazine]
Second: Cc1c(Cl)nc2ccc(C#Cc3nc(N4CCCC4)nn3C)nn12 [Example 38, 2-Chloro-3-methyl-6-((1-methyl-3-(pyrrolidin-1-yl)-1H-1,2,4-triazol-5-yl)ethynyl)-imidazo[1,2-b]pyridazine]
The IC50 of the first is 42-fold higher: 56 nM for the first, 1.33 nM for the second.

First: Cn1nc(N2CCCC2)nc1CCc1ccc2nc(Cl)cn2n1 [Example 37, 2-Chloro-6-(2-(1-methyl-3-(pyrrolidin-1-yl)-1H-1,2,4-triazol-5-yl)ethyl)imidazo[1,2-b]pyridazine]
Second: Cc1nnc2ccc(CCc3nc(N4CCCC4)nn3C)nn12 [Example 57, 3-Methyl-6-(2-(1-methyl-3-(pyrrolidin-1-yl)-1H-1,2,4-triazol-5-yl)ethyl)[1,2,4]triazolo[4,3-b]pyridazine]
The IC50 of the first is 1.6-fold lower: 338 nM for the first, 534 nM for the second.

Compared with `CNC(=O)c1cc2nc(C)c(C)n2nc1C#Cc1nc(N2CCCC2)nn1C` [Example 39, N,2,3-Trimethyl-6-((1-methyl-3-(pyrrolidin-1-yl)-1H-1,2,4-triazol-5-yl)ethynyl)imidazo[1,2-b]pyridazine-7-carboxamide], `CNC(=O)c1cc(C#Cc2nc(N3CCCC3)nn2C)nn2c(C)c(C)nc12` [Example 40, N,2,3-Trimethyl-6-((1-methyl-3-(pyrrolidin-1-yl)-1H-1,2,4-triazol-5-yl)ethynyl)imidazo-[1,2-b]pyridazine-8-carboxamide] is 1400-fold lower in IC50: 1400 nM for the first, 1 nM for the second. The second is the more potent here.

`CNC(=O)c1cc(CCc2nc(N3CCCC3)nn2C)nn2c(C)c(C)nc12` [Example 41, N,2,3-Trimethyl-6-(2-(1-methyl-3-(pyrrolidin-1-yl)-1H-1,2,4-triazol-5-yl)ethyl)imidazo-[1,2-b]pyridazine-8-carboxamide] and `Cc1nc2c(C3CC3)cc(CCc3nc(N4CCCC4)nn3C)nn2c1C` [Example 49, 8-Cyclopropyl-2,3-dimethyl-6-(2-(1-methyl-3-(pyrrolidin-1-yl)-1H-1,2,4-triazol-5-yl)ethyl)imidazo[1,2-b]pyridazine] are within 1.5-fold of each other in IC50: 2 nM for the first, 2.9 nM for the second.

Compared with `Cc1nc2cc(C(F)(F)F)c(C#Cc3nc(N4CCCC4)nn3C)nn2c1C` [Example 42, 2,3-Dimethyl-6-((1-methyl-3-(pyrrolidin-1-yl)-1H-1,2,4-triazol-5-yl)ethynyl)-7-(trifluoro-methyl)imidazo[1,2-b]pyridazine], `COc1cc2nc(C)c(C)n2nc1C#Cc1nc(N2CCCC2)nn1C` [Example 60, 7-Methoxy-2,3-dimethyl-6-((1-methyl-3-(pyrrolidin-1-yl)-1H-1,2,4-triazol-5-yl)ethynyl)imidazo[1,2-b]pyridazine] is 4.1-fold lower in IC50: 11 nM for the first, 2.7 nM for the second.

First: Cc1nc2c(C(C)C)cc(C#Cc3nc(N4CCCC4)nn3C)nn2c1C [Example 44, 8-Isopropyl-2,3-dimethyl-6-((1-methyl-3-(pyrrolidin-1-yl)-1H-1,2,4-triazol-5-yl)ethynyl)imidazo[1,2-b]pyridazine]
Second: Cc1nc2cc(C(C)C)c(C#Cc3nc(N4CCCC4)nn3C)nn2c1C [Example 50, 7-Isopropyl-2,3-dimethyl-6-((1-methyl-3-(pyrrolidin-1-yl)-1H-1,2,4-triazol-5-yl)ethynyl)imidazo[1,2-b]pyridazine]
The IC50 of the first is 2.6-fold lower: 1 nM for the first, 2.6 nM for the second. The first is the more potent here.

`Cc1nc2c(C3CC3)cc(C#Cc3nc(N4CCCC4)nn3C)nn2c1C` [Example 46, 8-Cyclopropyl-2,3-dimethyl-6-((1-methyl-3-(pyrrolidin-1-yl)-1H-1,2,4-triazol-5-yl)ethynyl)imidazo[1,2-b]pyridazine] and `Cc1nc2c(C3CCC3)cc(C#Cc3nc(N4CCCC4)nn3C)nn2c1C` [Example 47, 8-Cyclobutyl-2,3-dimethyl-6-((1-methyl-3-(pyrrolidin-1-yl)-1H-1,2,4-triazol-5-yl)ethynyl)imidazo[1,2-b]pyridazine] are within 1.5-fold of each other in IC50: 1 nM for the first, 0.9 nM for the second.

Going from `Cc1nc2c(C3CCC3)cc(CCc3nc(N4CCCC4)nn3C)nn2c1C` [Example 48, 8-Cyclobutyl-2,3-dimethyl-6-(2-(1-methyl-3-(pyrrolidin-1-yl)-1H-1,2,4-triazol-5-yl)ethyl)imidazo[1,2-b]pyridazine] to `Cc1nc2cc(C3CCCCC3)c(CCc3nc(N4CCCC4)nn3C)nn2c1C` [Example 58, 7-Cyclohexyl-2,3-dimethyl-6-(2-(1-methyl-3-(pyrrolidin-1-yl)-1H-1,2,4-triazol-5-yl)ethyl)imidazo[1,2-b]pyridazine], the IC50 rises from 2.3 nM to 19.8 nM (8.6-fold).

First: Cc1nc2cc(C3CCC3)c(C#Cc3nc(N4CCCC4)nn3C)nn2c1C [Example 51, 7-Cyclobutyl-2,3-dimethyl-6-((1-methyl-3-(pyrrolidin-1-yl)-1H-1,2,4-triazol-5-yl)ethynyl)imidazo[1,2-b]pyridazine]
Second: Cc1nn2ccc(C#Cc3nc(N4CCCC4)nn3C)nc2c1C [Example 52, 2,3-Dimethyl-5-((1-methyl-3-(pyrrolidin-1-yl)-1H-1,2,4-triazol-5-yl)ethynyl)pyrazolo[1,5-a]pyrimidine]
The IC50 of the first is 4.3-fold lower: 0.6 nM for the first, 2.6 nM for the second.

First: Cc1nn2ccc(CCc3nc(N4CCCC4)nn3C)nc2c1C [Example 53, 2,3-dimethyl-5-(2-(1-methyl-3-(pyrrolidin-1-yl)-1H-1,2,4-triazol-5-yl)ethyl)pyrazolo[1,5-a]pyrimidine]
Second: Cc1cn2nc(C)c(C)c2nc1CCc1nc(N2CCCC2)nn1C [Example 61, 2,3,6-Trimethyl-5-(2-(1-methyl-3-(pyrrolidin-1-yl)-1H-1,2,4-triazol-5-yl)ethyl)pyrazolo[1,5-a]pyrimidine]
The IC50 of the first is 36-fold lower: 2.1 nM for the first, 76 nM for the second. The first is the more potent here.

First: Cc1cc(C#Cc2nc(N3CCCC3)nn2C)nn2c(C)c(C(F)(F)F)nc12 [Example 54, 3,8-Dimethyl-6-((1-methyl-3-(pyrrolidin-1-yl)-1H-1,2,4-triazol-5-yl)ethynyl)-2-(trifluoro-methyl)imidazo[1,2-b]pyridazine]
Second: Cc1c(C(F)(F)F)nc2c(OCC(F)(F)F)cc(C#Cc3nc(N4CCCC4)nn3C)nn12 [Example 62, 3-Methyl-6-((1-methyl-3-(pyrrolidin-1-yl)-1H-1,2,4-triazol-5-yl)ethynyl)-8-(2,2,2-trifluoroethoxy)-2-(trifluoromethyl)imidazo[1,2-b]pyridazine]
The IC50 of the first is 1.9-fold lower: 1.6 nM for the first, 3 nM for the second. The first is the more potent here.

First: Cc1cc(CCc2nc(N3CCCC3)nn2C)nn2c(C)c(C(F)(F)F)nc12 [Example 55, 3,8-Dimethyl-6-(2-(1-methyl-3-(pyrrolidin-1-yl)-1H-1,2,4-triazol-5-yl)ethyl)-2-(trifluoro-methyl)imidazo[1,2-b]pyridazine]
Second: Cc1nnc2ccc(C#Cc3nc(N4CCCC4)nn3C)nn12 [Example 56, 3-Methyl-6-((1-methyl-3-(pyrrolidin-1-yl)-1H-1,2,4-triazol-5-yl)ethynyl)[1,2,4]triazolo-[4,3-b]pyridazine]
The IC50 of the first is 2.3-fold lower: 16.8 nM for the first, 38.2 nM for the second.
